Patent US8404869B2, “Phenanthrenequinone-based compound and pharmaceutical composition containing the same for the treatment or prevention of disease involving metabolic syndrome” (Mazence Inc., priority 2007, dated 2013)

Assays:
AMPK = experiment: Determination of AMPK activation in differentiated C2C12 myoblast cells (SAMS peptide, [γ-32P]ATP); type: cell-based; settings: C2C12 myoblast cells treated at 5 μg/ml; DMSO (0.5%) control = 1
Description: Myoblast cells, C2C12, were cultured in DMEM containing 10% bovine calf serum. When a cell density reached a range of about 85% to 90%, the culture medium was replaced with a medium containing 1% bovine calf serum to induce differentiation of cells. The thus-differentiated myoblast cells were treated with samples synthesized in Examples 1 through 16 at a concentration of 5 μg/ml, and compared with a control group. Enzymatic activity of AMPK was determined as follows. Firstly, C2C12 cells were lysed to obtain protein extracts and then ammonium sulfate was added to a final concentration of 30%, thereby precipitating proteins. Protein precipitates were dissolved in a buffer (62.5 mM Hepes, pH 7.2, 62.5 mM NaCl, 62.5 mM NaF, 1.25 mM Na pyrophosphate, 1.25 mM EDTA, 1 mM DTT, 0.1 mM PMSF, and 200 μM AMP). Thereafter, 200 μM SAMS peptide (HMRSAMSGLHLVKRR: the underlined serine residue is a phosphorylation site, as an AMPK phosphorylation site of acetyl-CoA carboxylase) and [γ-32P]ATP were added thereto and reactants were reacted for 10 minutes at 30° C. This was followed by spotting of the resulting reaction solution on p81 phosphocellulose paper. The p81 paper was washed with a 3% phosphoric acid solution and radioactivity thereof was measured. For each reaction condition, reactions involving no SAMS peptide were also conducted and basic values were subtracted from the thus-observed values.

[1] = system: C57BL/6JL Lep ob/Lep ob mice; experiment: Weight loss effects in obese mice (ob/ob); type: in vivo; settings: mixed-feed of 0.4% for 18 days; for change in vivo at 0.4 % in feed: Mus musculus, po, 432 h, (Final BW−Initial BW)/Initial BW×100, read-out: Increase in BW; for Final BW: ob/ob male mice
Description: (§1) 10-week-old C57BL/6JL Lep ob/Lep ob male mice having obesity characteristics and predisposition were purchased from Daehan Biolink Co., Ltd. (Chungchongbuk-do, Korea). Animals were raised in a breeding room maintained at a temperature of 23° C., 55% humidity, illumination of 300 to 500 lux, a 12-h light/dark (L/D) cycle, and ventilation of 10 to 18 times/hr. Animals were fed ad libitum pellets of Purina Rodent Laboratory Chow 5001 (purchased from Purina Mills Inc., St. Louis, Mo., USA) as a solid feed for experimental animals and tap water as drinking water. Mice were allowed to acclimate to new environment of the breeding room for two weeks and were then administered some pyrano-3,4-phenanthrenequinone or furano-3,4-naphthoquinone derivatives synthesized according to the present invention at mixed-feed of 0.4% for 18 days. Observation was made on changes in body weight, blood glucose and dietary intake, with respect to a time course of administration. After administration was complete, confirm changes in glucose, lipid and enzyme levels in blood.
(§2) For comparison, the same experiments were carried out for the subject (negative control group) to which the active ingredient was not administered, and subject (positive control group) to which Cryptotanshinone, extracted from Danshen by a method as set forth in Example 1 of the Korean Patent Application No. 2004-0116339 by the present applicant, was administered by the above-mentioned condition.
Herein, ‘Increase in BW’ is calculated as the following; Increase in BW=(Final BW−Initial BW)/Initial BW×100

[2] = system: C57BL/6JL Lep ob/Lep ob mice; experiment: Blood biomarkers (lipid, glucose, enzyme levels) in ob/ob mice; type: in vivo; parameters: unit not given here; settings: after mixed-feed of 0.4% for 18 days
Description: as §1, §2

Structure (SMILES) | AMPK fold (AMPK) | change in vivo at 0.4 % in feed [1] | Final BW [1] | GOT [2] | GPT [2] | HDL chol [2] | LDL chol [2] | T. chol [2] | glucose [2] | triglyceride [2]
Cc1ccc2ccc3c(c2c1)C(=O)C(=O)C1=C3OC(C)C1 (stereo not drawn) [Example 14, 2,8-Dimethyl-1,2-dihydro-phenanthro[1,2-b]furan-10,11-dione] | 2.5 fold | -7% | 48.7 ± 1.9 g | 283.3 | 66.7 | 45.0 | 5.00 | 115.0 | 146 | 88.3
COc1ccc2ccc3c(c2c1)C(=O)C(=O)C1=C3OC(C)C1 (stereo not drawn) [Example 15, 8-Methoxy-2-methyl-1,2-dihydro-phenanthro[1,2-b]furan-10,11-dione] | 2.2 fold | -6.7% | 48.5 ± 1.5 g | 312.5 | 206.7 | 46.0 | 8.75 | 142.0 | 155 | 79.0
Cc1cc2c(c3ccccc13)C(=O)C(=O)C1=C2OC(C)(C)CC1 [Example 16, 3,3,6-Trimethyl-2,3-dihydro-1H-4-oxa-chrysene-11,12-dione] | 1.9 fold | -7.2% | 48.0 ± 1.9 g | 342.5 | 197.5 | 47.0 | 12.00 | 140.0 | 135 | 82.3
